Data as given in patent US20230277669A1, “USES OF UROLITHINS” (Amazentis SA, priority 2022, published 2023).

What was measured:
[1] = system: APTK organoids; experiment: APTK organoids incubated with UA, flow cytometry; type: cell-based, murine
Text: Oral UA confers anti-tumor effects in murine colorectal cancer in a T-cell dependent manner. (FIG. 1A) Schematic representation of AOM model and different UA containing diets. (FIG. 1B) Representative images of swiss-roll sections from AOM-induced colon tumors. Scale bars are 2 mm (upper row) and 300 µm (lower row), respectively. (FIG. 1C) Tumor incidence of AOM-induced tumors receiving different UA-containing diets; n=4/5/5. Data are mean ±SD, depicting one of two independent experiments. *p < 0.05 by two-sided t-test. (FIG. 1D) Average lesion size of AOM-induced tumors receiving different UA-containing diets; n=4/5/5. Data are mean ±SD, depicting one of two independent experiments. *p < 0.05 by two-sided t-test. (FIG. 1E) Relative number of CD45^+CD3^+ T cells in colons of AOM-treated mice at week 24 (n>7, pooled from two independent experiments). Data are mean ± SD, **p < 0.01 by two-sided t-test. (FIG. 1F) Organoid treatment scheme. APTK-organoids were incubated in the presence of UA or DMSO for the indicated time points, prior to flow cytometric analysis. (FIG. 1G) Quantification of lysosome formation as assessed by lysotracker MFI via flow cytometry after 24 h incubation at the presence of various UA concentrations (n=5/4/4). Depicts one out of two indepdent experiments. Data are mean ± SD, *p < 0.05; **p < 0.01 as established via two-sided t-test. (FIG. 1H) Mitotracker signal of APTK organoids incubated for 24 h at the presence of UA in vitro (n=4/4/4) and antigen presentation via MHC-I molecules (I) after 48 h of treatment (n=4/4/4). Results from one out of two independent experiments are shown. Data are mean ± SD, statistical analysis was performed via two-sided t-test, *p < 0.05; **p < 0.01, ****p < 0.0001. (FIG. 1I) Upregulation of MHC-I by UA. (FIG. 1J) Experimental setup of oral UA administration in mice with established APTK-s.c. tumors. […] (FIG. 1L) End point tumor weight, (FIG. 1M) CD8+ T cell infiltration in APTK-s.c. tumors assessed by flow cytometry, normalising total number of CD8^+ T cells to tumor weight (n=7 per group). […]

[2] = system: APTK-s.c. tumors; experiment: Oral UA in mice with established s.c. APTK tumors; type: in vivo, C57BL/6 mice
Text: Oral UA confers anti-tumor effects in murine colorectal cancer in a T-cell dependent manner. (FIG. 1A) Schematic representation of AOM model and different UA containing diets. (FIG. 1B) Representative images of swiss-roll sections from AOM-induced colon tumors. Scale bars are 2 mm (upper row) and 300 µm (lower row), respectively. (FIG. 1C) Tumor incidence of AOM-induced tumors receiving different UA-containing diets; n=4/5/5. Data are mean ±SD, depicting one of two independent experiments. *p < 0.05 by two-sided t-test. (FIG. 1D) Average lesion size of AOM-induced tumors receiving different UA-containing diets; n=4/5/5. Data are mean ±SD, depicting one of two independent experiments. *p < 0.05 by two-sided t-test. (FIG. 1E) Relative number of CD45^+CD3^+ T cells in colons of AOM-treated mice at week 24 (n>7, pooled from two independent experiments). Data are mean ± SD, **p < 0.01 by two-sided t-test. (FIG. 1F) Organoid treatment scheme. APTK-organoids were incubated in the presence of UA or DMSO for the indicated time points, prior to flow cytometric analysis. (FIG. 1G) Quantification of lysosome formation as assessed by lysotracker MFI via flow cytometry after 24 h incubation at the presence of various UA concentrations (n=5/4/4). Depicts one out of two indepdent experiments. Data are mean ± SD, *p < 0.05; **p < 0.01 as established via two-sided t-test. (FIG. 1H) Mitotracker signal of APTK organoids incubated for 24 h at the presence of UA in vitro (n=4/4/4) and antigen presentation via MHC-I molecules (I) after 48 h of treatment (n=4/4/4). Results from one out of two independent experiments are shown. Data are mean ± SD, statistical analysis was performed via two-sided t-test, *p < 0.05; **p < 0.01, ****p < 0.0001. (FIG. 1I) Upregulation of MHC-I by UA. (FIG. 1J) Experimental setup of oral UA administration in mice with established APTK-s.c. tumors. Treatment diet was initiated eleven days after tumor injection and maintained until the end of the experiment. (FIG. 1K) Growth curve of mice subcutaneously transplanted with APTK tumors, receiving either UA-containing or control food (n=7 per group). Data are mean ± SD, ***p <0.001 by two-sided t-test. One out of two independent experiments are shown. (FIG. 1L) End point tumor weight, (FIG. 1M) CD8+ T cell infiltration in APTK-s.c. tumors assessed by flow cytometry, normalising total number of CD8^+ T cells to tumor weight (n=7 per group). Data are mean ± SD, statistical analysis was performed via Mann-Whitney test, *p < 0.05 and ***p <0.001. (FIG. 1N) Size of subcutaneous APTK tumors in Rag1^-/- mice receiving UA-containing or control food (n=7 per group). Treatment was initiated as depicted in FIG. 1J. Data are mean +-SD, depicting one out of two independent experiments. […]

[3] = increasing concentrations of UA, 24 h

`O=c1oc2cc(O)ccc2c2ccc(O)cc12` [Urolithin A] was tested, and the “MHC-I (antigen presentation)” value ([1]; 48 h of treatment) was “marked upregulation of MHC-I”, the MitoTracker staining [1, 3] was “loss of MitoTracker staining” and the “formation of lysosomes (lysotracker MFI)” value [1, 3] was “dose-dependent formation of lysosomes”. For the same compound, the tumor growth ([2]; CD8+ T cell depleting antibodies, UA-containing or control food) was “exacerbated tumor growth in both control and UA-fed cohorts”, the tumor growth ([2]; UA-containing food plus a-PD1) was “sensitized APTK tumors to PD-1 blockade” and the “CD8+ T cell infiltration” value ([2]; high-dose UA diet (2.28 g/kg)) was “enhanced CD8^+ T cell infiltration”. The tumor growth ([2]; high-dose UA diet (2.28 g/kg), started eleven days after tumor injection) was “significantly reduced tumor growth”.
